Experimental data taken from PubChem BioAssay (NCI).
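Abbreviation: GI50, concentration required for 50% inhibition of growth. The concentration for full growth arrest is given as TGI.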

Legend:
Test in all cases: growth of human tumour cells (NCI), 384-well format
MDA-MB-435 melanoma = system: MDA-MB-435 melanoma
SF-539 CNS = system: SF-539 CNS
CCRF-CEM leukemia = system: CCRF-CEM leukemia
DU-145 prostate = system: DU-145 prostate
SNB-19 CNS = system: SNB-19 CNS
HOP-62 NSCLC = system: HOP-62 NSCLC
HT29 colon = system: HT29 colon
HL-60(TB) leukemia = system: HL-60(TB) leukemia
U251 glioblastoma = system: U251 glioblastoma
786-0 renal = system: 786-0 renal
TK-10 renal = system: TK-10 renal
IGROV1 ovarian = system: IGROV1 ovarian
NCI-H226 lung = system: NCI-H226 lung
KM12 colon = system: KM12 colon
RXF 393 renal = system: RXF 393 renal
MALME-3M melanoma = system: MALME-3M melanoma
NCI-H460 NSCLC = system: NCI-H460 NSCLC
A498 renal = system: A498 renal
ACHN renal = system: ACHN renal
M14 melanoma = system: M14 melanoma
SF-295 CNS = system: SF-295 CNS
SK-MEL-28 melanoma = system: SK-MEL-28 melanoma
HOP-92 NSCLC = system: HOP-92 NSCLC
SF-268 CNS = system: SF-268 CNS
SK-MEL-5 melanoma = system: SK-MEL-5 melanoma
LOX IMVI melanoma = system: LOX IMVI melanoma
MOLT-4 leukemia = system: MOLT-4 leukemia
MDA-MB-468 breast = system: MDA-MB-468 breast
SW-620 colon = system: SW-620 colon
SNB-75 CNS = system: SNB-75 CNS
BT-549 breast = system: BT-549 breast
A549 NSCLC = system: A549 NSCLC
SK-MEL-2 melanoma = system: SK-MEL-2 melanoma
HS 578T breast = system: HS 578T breast
NCI/ADR-RES ovarian = system: NCI/ADR-RES ovarian
SK-OV-3 ovarian = system: SK-OV-3 ovarian
EKVX NSCLC = system: EKVX NSCLC
MCF7 breast = system: MCF7 breast
HCC-2998 colon = system: HCC-2998 colon
UACC-62 melanoma = system: UACC-62 melanoma
NCI-H522 lung = system: NCI-H522 lung
PC-3 prostate = system: PC-3 prostate
RPMI-8226 leukemia = system: RPMI-8226 leukemia
COLO 205 colon = system: COLO 205 colon
HCT-116 colon = system: HCT-116 colon
NCI-H23 lung = system: NCI-H23 lung
OVCAR-4 ovarian = system: OVCAR-4 ovarian
SN12C renal = system: SN12C renal
OVCAR-8 ovarian = system: OVCAR-8 ovarian
NCI-H322M lung = system: NCI-H322M lung
HCT-15 colon = system: HCT-15 colon
OVCAR-3 ovarian = system: OVCAR-3 ovarian
UACC-257 melanoma = system: UACC-257 melanoma
CAKI-1 renal = system: CAKI-1 renal
K-562 leukemia = system: K-562 leukemia

`CN(C)C(=O)c1ccc(SC(=S)NCc2ccccc2)cc1` was tested, and the GI50 (MDA-MB-435 melanoma) was 2.23 µM, the TGI (MDA-MB-435 melanoma) was 5.21 µM and the GI50 (SF-539 CNS) was 1.77 µM. The TGI (SF-539 CNS) was 3.29 µM, the GI50 (CCRF-CEM leukemia) was 1.63 µM and the TGI (CCRF-CEM leukemia) was 3.05 µM. For the same compound, the GI50 (DU-145 prostate) was 5.09 µM, the TGI (DU-145 prostate) was 15 µM and the GI50 (SNB-19 CNS) was 3.37 µM. It also gave a TGI (SNB-19 CNS) of 9.21 µM, a GI50 (HOP-62 NSCLC) of 1.9 µM and a TGI (HOP-62 NSCLC) of 3.87 µM. The GI50 (HT29 colon) was 1.8 µM, the TGI (HT29 colon) was 3.25 µM and the GI50 (HL-60(TB) leukemia) was 0.364 µM. For the same compound, the TGI (HL-60(TB) leukemia) was 1.15 µM, the GI50 (U251 glioblastoma) was 3.55 µM and the TGI (U251 glioblastoma) was 9.29 µM. The GI50 ([…]-0 renal) was 1.99 µM, the TGI (786-0 renal) was 3.6 µM and the GI50 (TK-10 renal) was 2.87 µM. The TGI (TK-10 renal) was 6.13 µM, the GI50 (IGROV1 ovarian) was 2.48 µM and the TGI (IGROV1 ovarian) was 6.77 µM. For the same compound, the GI50 (NCI-H226 lung) was 2.63 µM, the TGI (NCI-H226 lung) was 6.33 µM and the GI50 (KM12 colon) was 1.67 µM. It also gave a TGI (KM12 colon) of 8.91 µM, a GI50 (RXF 393 renal) of 1.83 µM and a TGI (RXF 393 renal) of 3.34 µM. It also gave a GI50 (MALME-3M melanoma) of 3.15 µM, a TGI (MALME-3M melanoma) of 5.52 µM and a GI50 (NCI-H460 NSCLC) of 2.73 µM. It also gave a TGI (NCI-H460 NSCLC) of 6.45 µM, a GI50 (A498 renal) of 3.78 µM and a TGI (A498 renal) of 10.3 µM. It also gave a GI50 (ACHN renal) of 3.24 µM, a TGI (ACHN renal) of 8.66 µM and a GI50 (M14 melanoma) of 2.36 µM. It also gave a TGI (M14 melanoma) of 5.32 µM, a GI50 (SF-295 CNS) of 12.1 µM and a TGI (SF-295 CNS) of 24.6 µM. The GI50 (SK-MEL-28 melanoma) was 2.52 µM, the TGI (SK-MEL-28 melanoma) was 4.91 µM and the GI50 (HOP-92 NSCLC) was 2.72 µM. The TGI (HOP-92 NSCLC) was 7.17 µM, the GI50 (SF-268 CNS) was 3.83 µM and the TGI (SF-268 CNS) was 10.8 µM. The GI50 (SK-MEL-5 melanoma) was 1.91 µM, the TGI (SK-MEL-5 melanoma) was 3.38 µM and the GI50 (LOX IMVI melanoma) was 2.07 µM. It also gave a TGI (LOX IMVI melanoma) of 4.09 µM, a GI50 (MOLT-4 leukemia) of 1.64 µM and a TGI (MOLT-4 leukemia) of 3.09 µM. For the same compound, the GI50 (MDA-MB-468 breast) was 0.701 µM, the TGI (MDA-MB-468 breast) was 1.33 µM and the GI50 (SW-620 colon) was 2.87 µM. For the same compound, the TGI (SW-620 colon) was 10.1 µM, the GI50 (SNB-75 CNS) was 4.09 µM and the TGI (SNB-75 CNS) was 7.63 µM. The GI50 (BT-549 breast) was 2.39 µM, the TGI (BT-549 breast) was 4.6 µM and the GI50 (A549 NSCLC) was 7.98 µM. The TGI (A549 NSCLC) was 21 µM, the GI50 (SK-MEL-2 melanoma) was 1.54 µM and the TGI (SK-MEL-2 melanoma) was 2.98 µM. The GI50 (HS 578T breast) was 2.77 µM, the TGI (HS 578T breast) was 5.81 µM and the GI50 (NCI/ADR-RES ovarian) was 2.96 µM. It also gave a TGI (NCI/ADR-RES ovarian) of 6.23 µM, a GI50 (SK-OV-3 ovarian) of 6.26 µM and a TGI (SK-OV-3 ovarian) of 18.1 µM. It also gave a GI50 (EKVX NSCLC) of 13.4 µM, a TGI (EKVX NSCLC) of 26.3 µM and a GI50 (MCF7 breast) of 2.36 µM. For the same compound, the TGI (MCF7 breast) was 10.6 µM, the GI50 (HCC-2998 colon) was 4.77 µM and the TGI (HCC-2998 colon) was 13.6 µM. The GI50 (UACC-62 melanoma) was 2.09 µM, the TGI (UACC-62 melanoma) was 3.61 µM and the GI50 (NCI-H522 lung) was 3.18 µM. It also gave a TGI (NCI-H522 lung) of 7.34 µM, a GI50 (PC-3 prostate) of 3.64 µM and a TGI (PC-3 prostate) of 9.17 µM. For the same compound, the GI50 (RPMI-8226 leukemia) was 0.458 µM, the TGI (RPMI-8226 leukemia) was 1.22 µM and the GI50 (COLO 205 colon) was 4.72 µM. The TGI (COLO 205 colon) was 15.1 µM, the GI50 (HCT-116 colon) was 3.51 µM and the TGI (HCT-116 colon) was 8.81 µM. It also gave a GI50 (NCI-H23 lung) of 3.17 µM, a TGI (NCI-H23 lung) of 8.36 µM and a GI50 (OVCAR-4 ovarian) of 15.7 µM. For the same compound, the TGI (OVCAR-4 ovarian) was 29.2 µM, the GI50 (SN12C renal) was 2.45 µM and the TGI (SN12C renal) was 6.12 µM. The GI50 (OVCAR-8 ovarian) was 2.15 µM, the TGI (OVCAR-8 ovarian) was 4.31 µM and the GI50 (NCI-H322M lung) was 5.05 µM. The TGI (NCI-H322M lung) was 15.7 µM, the GI50 (HCT-15 colon) was 1.9 µM and the TGI (HCT-15 colon) was 3.53 µM. For the same compound, the GI50 (OVCAR-3 ovarian) was 3.8 µM, the TGI (OVCAR-3 ovarian) was 11.4 µM and the GI50 (UACC-257 melanoma) was 2.9 µM. For the same compound, the TGI (UACC-257 melanoma) was 5.66 µM, the GI50 (CAKI-1 renal) was 2.92 µM and the TGI (CAKI-1 renal) was 9.76 µM. It also gave a GI50 (K-562 leukemia) of 10.6 µM and a TGI (K-562 leukemia) of 22.5 µM.
